Measured values reported in PMC8388879 (Antioxidants, 2021).

Experiments:
[1] = molecular target: mushroom TYR (tyrosinase); assay: dopachrome formation from L-DOPA (A475), commercial mushroom TYR; IC50 […] at […] L-DOPA, […] at […]; also traps dopaquinone; assay type: biochemical
human TYR (tyrosinase) = molecular target: T1, human TYR (tyrosinase) (Homo sapiens, UniProt P14679); assay: dopachrome formation (A475) in lysate of HEK293 cells expressing human TYR; […] inhibition at […] (dopaquinone trapping may contribute); assay type: cell-based
T1 sequence (P14679 19-529): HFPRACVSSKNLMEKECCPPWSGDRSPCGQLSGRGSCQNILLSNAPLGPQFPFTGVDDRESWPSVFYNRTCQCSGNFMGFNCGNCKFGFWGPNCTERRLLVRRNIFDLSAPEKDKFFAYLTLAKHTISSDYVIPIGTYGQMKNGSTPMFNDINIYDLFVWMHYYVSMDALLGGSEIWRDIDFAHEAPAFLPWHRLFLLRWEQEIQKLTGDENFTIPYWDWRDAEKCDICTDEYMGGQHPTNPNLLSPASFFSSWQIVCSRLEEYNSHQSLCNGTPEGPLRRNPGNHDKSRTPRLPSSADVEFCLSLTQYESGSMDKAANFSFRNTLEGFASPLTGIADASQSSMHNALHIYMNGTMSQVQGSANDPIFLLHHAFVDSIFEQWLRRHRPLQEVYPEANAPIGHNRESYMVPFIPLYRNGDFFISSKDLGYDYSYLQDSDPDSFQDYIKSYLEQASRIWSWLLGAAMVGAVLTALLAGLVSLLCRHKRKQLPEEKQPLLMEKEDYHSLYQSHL

| IC50 [1] [µM] | inhibition at 200 µM (human TYR (tyrosinase)) [%] | SMILES |
| --- | --- | --- |
| 115 | – | NC(=O)[C@@H](N)CS [C-NH2, L-Cysteinamide] |
| – | 70 | N[C@@H](CS)C(=O)O [L-cysteine] |
